Data from ChEMBL document CHEMBL5505993, “Identification of a ferritinophagy inducer via sinomenine modification for the treatment of colorectal cancer” (Eur J Med Chem, 2024).

Experiments:
HCT-116 = assay: Cytotoxicity against human HCT-116 cells assessed as inhibition of cell growth incubated for 48 hrs by CCK-8 assay; format: functional, cell-based; details: HCT-116, 48 h
HT-29 = assay: Cytotoxicity against human HT-29 cells assessed as inhibition of cell growth incubated for 48 hrs by CCK-8 assay; format: functional, cell-based; details: HT-29, 48 h
[1] = Cytotoxicity against human NCM460 cells assessed as inhibition of cell growth incubated for 48 hrs by CCK-8 assay; format: toxicity, cell-based

Compound | IC50 (HCT-116) [µM] | IC50 (HT-29) [µM] | IC50 at 48 h [1] [µM]
COC1=C[C@@H]2[C@@H]3Cc4ccc(OC)c(OC(=O)CCl)c4[C@]2(CCN3C)CC1=O | 33.3 | > 50 | > 50
C/C=C/C(=O)Oc1c(OC)ccc2c1[C@@]13CCN(C)[C@@H](C2)[C@H]1C=C(OC)C(=O)C3 | > 50 | > 50 | > 50
COC1=C[C@@H]2[C@@H]3Cc4ccc(OC)c(OC(=O)CCCCCCCNC(=O)/C=C/C(F)(F)F)c4[C@]2(CCN3C)CC1=O | > 50 | > 50 | > 50
C=C(Cl)C(=O)Oc1c(OC)ccc2c1[C@@]13CCN(C)[C@@H](C2)[C@H]1C=C(OC)C(=O)C3 | 12.9 | 8.66 | 35.2
COCC(=O)Oc1c(OC)ccc2c1[C@@]13CCN(C)[C@@H](C2)[C@H]1C=C(OC)C(=O)C3 | > 50 | > 50 | > 50
C=C(Cl)C(=O)NCCC(=O)Oc1c(OC)ccc2c1[C@@]13CCN(C)[C@@H](C2)[C@H]1C=C(OC)C(=O)C3 | 4.76 | 9.45 | 34.5
CCO/C=C/C(=O)Oc1c(OC)ccc2c1[C@@]13CCN(C)[C@@H](C2)[C@H]1C=C(OC)C(=O)C3 | > 50 | > 50 | > 50
CCCCCCC(=O)Oc1c(OC)ccc2c1[C@@]13CCN(C)[C@@H](C2)[C@H]1C=C(OC)C(=O)C3 | > 50 | 31.9 | > 50
C=C(Cl)C(=O)NCCCCCCCC(=O)Oc1c(OC)ccc2c1[C@@]13CCN(C)[C@@H](C2)[C@H]1C=C(OC)C(=O)C3 | 19.6 | 17.8 | > 50
COC1=C[C@@H]2[C@@H]3Cc4ccc(OC)c(OC(=O)C(C)C)c4[C@]2(CCN3C)CC1=O | > 50 | > 50 | > 50
CCCCCCCCCCCC(=O)Oc1c(OC)ccc2c1[C@@]13CCN(C)[C@@H](C2)[C@H]1C=C(OC)C(=O)C3 | 5.69 | 4 | 9.85
COC1=C[C@@H]2[C@@H]3Cc4ccc(OC)c(OC(=O)c5ccc(Cl)cc5)c4[C@]2(CCN3C)CC1=O | > 50 | 25.1 | > 50
COC1=C[C@@H]2[C@@H]3Cc4ccc(OC)c(OC(=O)CCNC(=O)/C=C/C(F)(F)F)c4[C@]2(CCN3C)CC1=O | > 50 | > 50 | > 50
C=CC(=O)NCCCCCCCC(=O)Oc1c(OC)ccc2c1[C@@]13CCN(C)[C@@H](C2)[C@H]1C=C(OC)C(=O)C3 | > 50 | > 50 | > 50
CCCC(=O)Oc1c(OC)ccc2c1[C@@]13CCN(C)[C@@H](C2)[C@H]1C=C(OC)C(=O)C3 | > 50 | > 50 | > 50
COC1=C[C@@H]2[C@@H]3Cc4ccc(OC)c(OC(=O)CCCCCCCCCCCNC(=O)/C=C/C(F)(F)F)c4[C@]2(CCN3C)CC1=O | 7.84 | 8.71 | 22.9
COC1=C[C@@H]2[C@@H]3Cc4ccc(OC)c(OC(=O)/C=C/C(F)(F)F)c4[C@]2(CCN3C)CC1=O | 6.01 | 5.99 | 16
COC1=C[C@@H]2[C@@H]3Cc4ccc(OC)c(O)c4[C@]2(CCN3C)CC1=O [SINOMENINE] | > 50 | > 50 | > 50
C=CC(=O)Oc1c(OC)ccc2c1[C@@]13CCN(C)[C@@H](C2)[C@H]1C=C(OC)C(=O)C3 | 7.04 | 9.12 | 32.5
C=CC(=O)NCCC(=O)Oc1c(OC)ccc2c1[C@@]13CCN(C)[C@@H](C2)[C@H]1C=C(OC)C(=O)C3 | > 50 | > 50 | > 50
COC1=C[C@@H]2[C@@H]3Cc4ccc(OC)c(OC(=O)/C=C/c5ccccc5)c4[C@]2(CCN3C)CC1=O | > 50 | > 50 | > 50
C=CCCC(=O)Oc1c(OC)ccc2c1[C@@]13CCN(C)[C@@H](C2)[C@H]1C=C(OC)C(=O)C3 | > 50 | > 50 | > 50
C=C(C)C(=O)Oc1c(OC)ccc2c1[C@@]13CCN(C)[C@@H](C2)[C@H]1C=C(OC)C(=O)C3 | 61.4 | > 50 | > 50
COC1=C[C@@H]2[C@@H]3Cc4ccc(OC)c(OC(=O)c5ccccc5)c4[C@]2(CCN3C)CC1=O | > 50 | > 50 | > 50
COC1=C[C@@H]2[C@@H]3Cc4ccc(OC)c(OC(=O)C5CC5)c4[C@]2(CCN3C)CC1=O | > 50 | > 50 | > 50
COC1=C[C@@H]2[C@@H]3Cc4ccc(OC)c(OC(=O)c5ccc(OC)cc5)c4[C@]2(CCN3C)CC1=O | > 50 | > 50 | > 50
COC1=C[C@@H]2[C@@H]3Cc4ccc(OC)c(OC(C)=O)c4[C@]2(CCN3C)CC1=O | > 50 | > 50 | > 50
C=CC(=O)NCCCCCCCCCCCC(=O)Oc1c(OC)ccc2c1[C@@]13CCN(C)[C@@H](C2)[C@H]1C=C(OC)C(=O)C3 | 20.2 | 7.14 | 33.2
